Source: ChEMBL document CHEMBL1128209, “Cyclooxygenase-2 inhibitors. Synthesis and pharmacological activities of 5-methanesulfonamido-1-indanone derivatives” (J Med Chem, 1995)

How the values were obtained:
[1] = molecular target: Prostaglandin G/H synthase 1 (Homo sapiens, UniProt P23219); assay: Inhibition of Prostaglandin G/H synthase 1 in human U937 cells; type: cell-based, U-937
Rattus norvegicus [2] = assay: In vivo antiinflammatory activity by the Carrageenan-induced rat paw edema assay.; type: functional
[3] = molecular target: T1, Prostaglandin G/H synthase 2 (Homo sapiens, UniProt P35354); assay: In vitro inhibition of prostaglandin G/H synthase 2 expressed in human osteosarcoma 143 cells; type: cell-based
T1 sequence (P35354 whole entry): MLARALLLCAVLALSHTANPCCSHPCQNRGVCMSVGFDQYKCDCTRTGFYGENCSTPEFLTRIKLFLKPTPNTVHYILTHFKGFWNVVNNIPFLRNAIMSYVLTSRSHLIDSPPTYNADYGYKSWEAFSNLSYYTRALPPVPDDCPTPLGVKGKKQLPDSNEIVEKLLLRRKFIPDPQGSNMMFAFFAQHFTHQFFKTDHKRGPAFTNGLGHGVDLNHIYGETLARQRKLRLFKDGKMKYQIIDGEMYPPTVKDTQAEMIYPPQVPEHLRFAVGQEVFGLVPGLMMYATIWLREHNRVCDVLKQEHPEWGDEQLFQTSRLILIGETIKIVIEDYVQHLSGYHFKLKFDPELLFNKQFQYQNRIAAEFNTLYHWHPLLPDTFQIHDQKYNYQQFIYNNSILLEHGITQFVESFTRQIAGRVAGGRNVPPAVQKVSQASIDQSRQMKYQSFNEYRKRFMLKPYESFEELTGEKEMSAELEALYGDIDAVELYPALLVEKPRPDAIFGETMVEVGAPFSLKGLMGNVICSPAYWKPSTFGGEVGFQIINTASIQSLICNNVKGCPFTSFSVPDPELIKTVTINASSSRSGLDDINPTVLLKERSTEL

[4] = molecular target: T2, Prostaglandin G/H synthase 2 (Homo sapiens) (UniProt P35354); assay: Ability to inhibit the Prostaglandin G/H synthase 2 expressed in human osteosarcoma 143 cells, in vitro; type: cell-based; conditions: concentration not given here
T2 sequence (whole entry): T1 sequence (P35354 whole entry)

[5] = Plasma terminal half life in squirrel monkeys at a dose of 1 mg/kg administered intravenously; type: ADME, organism-based; parameters: dose 1 mg/kg, route intravenous; conditions: saimiri, iv
[6] = Bioavailability in rat; type: ADME, organism-based; conditions: in vivo
Rattus norvegicus [7] = assay: In vivo antiinflammatory activity by the Carrageenan-induced rat paw edema assay; type: functional
[8] = Plasma clearance rate was determined for the compound in squirrel monkeys; type: ADME, organism-based; conditions: saimiri
[9] = Plasma clearance rate was determined for the compound in rats; type: ADME, organism-based; conditions: rat
[10] = Bioavailability in squirrel monkey; type: ADME, organism-based, Saimiri sciureus; conditions: in vivo
[11] = Plasma Clearance rate was determined for the compound in squirrel monkeys; type: ADME, organism-based; conditions: saimiri
[12] = Plasma Clearance rate was determined for the compound in rats; type: ADME, organism-based; conditions: rat
Rattus norvegicus [13] = assay: In vivo antiinflammatory activity by the Carrageenan-induced rat paw hyperalgesia assay.; type: functional
Rattus norvegicus [14] = assay: In vivo antipyretic activity by endotoxin-induced rat pyresis assay.; type: functional

Chain of Prostaglandin G/H synthase 1 (P23219 whole entry): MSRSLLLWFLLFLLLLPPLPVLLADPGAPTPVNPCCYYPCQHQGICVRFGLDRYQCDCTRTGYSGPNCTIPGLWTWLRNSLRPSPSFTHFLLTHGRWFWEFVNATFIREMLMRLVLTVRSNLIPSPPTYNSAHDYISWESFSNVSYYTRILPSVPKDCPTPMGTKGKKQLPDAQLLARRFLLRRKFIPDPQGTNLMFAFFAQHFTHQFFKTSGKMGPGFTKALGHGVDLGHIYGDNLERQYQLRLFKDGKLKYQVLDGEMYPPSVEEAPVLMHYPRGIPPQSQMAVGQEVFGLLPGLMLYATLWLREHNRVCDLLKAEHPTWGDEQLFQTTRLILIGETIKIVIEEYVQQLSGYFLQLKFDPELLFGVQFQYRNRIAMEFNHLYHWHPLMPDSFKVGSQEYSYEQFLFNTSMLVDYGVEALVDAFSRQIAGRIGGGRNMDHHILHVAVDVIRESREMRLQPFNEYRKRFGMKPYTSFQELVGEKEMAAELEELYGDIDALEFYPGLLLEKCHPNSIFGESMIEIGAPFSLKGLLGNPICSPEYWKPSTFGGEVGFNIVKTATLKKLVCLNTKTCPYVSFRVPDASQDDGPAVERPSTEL

Row | Compound | IC50 [1] [nM] | IC50 [3] [nM] | also measured
1 | CS(=O)(=O)Nc1cc2c(cc1Sc1ccc(Cl)cc1Cl)C(=O)CC2 | 40000 | 10 | ED30 (Rattus norvegicus [2]): 0.1 MPK
2 | CS(=O)(=O)Nc1cc2c(cc1Sc1nccs1)C(=O)CC2 | > 10000 | 100 | ED30 (Rattus norvegicus [2]): 0.85 MPK
3 | CS(=O)(=O)Nc1cc2c(cc1SC1CCCCC1)C(=O)CC2 | > 50000 | 50 | ED30 (Rattus norvegicus [2]): >3 MPK
4 | COc1ccccc1Sc1cc2c(cc1NS(C)(=O)=O)CCC2=O |  | > 10000 | 
5 | CS(=O)(=O)Nc1cc2c(cc1OC1CCCC1)C(=O)CC2 | > 10000 | > 1000 | 
6 | CS(=O)(=O)Nc1cc2c(cc1Sc1ccc(C(=O)O)cc1)C(=O)CC2 |  | > 10000 | 
7 | CS(=O)(=O)Nc1cc2c(cc1[S+]([O-])c1ccc(F)cc1F)C(=O)CC2 (stereo unspecified) |  |  | inhibition [4]: 27%
8 | CS(=O)(=O)Nc1cc2c(cc1Sc1cncs1)C(=O)CC2 |  | > 10000 | 
9 | CC(=O)Nc1cc2c(cc1Sc1ccc(F)cc1F)C(=O)CC2 |  | > 10000 | 
10 | CS(=O)(=O)Nc1cc2c(cc1Sc1ccc(F)cc1F)C(=O)CC2 | > 50000 |  | half-life [5]: 6.9 h; bioavailability [6]: 90%; ED30 (Rattus norvegicus [7]): 0.21 MPK; clearance [8]: 0.5 mL/min; clearance [9]: 0.5 mL/min; bioavailability [10]: 145%
11 | CS(=O)(=O)Nc1cc2c(cc1Sc1ccccc1F)C(=O)CC2 | > 50000 | 100 | 
12 | CC(C)c1ccc(Sc2cc3c(cc2NS(C)(=O)=O)CCC3=O)cc1 |  | > 10000 | 
13 | CS(=O)(=O)Nc1cc2c(cc1Sc1ccncc1)C(=O)CC2 |  | 1000 | 
14 | CCc1ccc(Sc2cc3c(cc2NS(C)(=O)=O)CCC3=O)cc1 |  | 100 | 
15 | CCS(=O)(=O)Nc1cc2c(cc1Sc1ccc(F)cc1F)C(=O)CC2 | > 10000 | > 10000 | 
16 | Cc1cccc(Sc2cc3c(cc2NS(C)(=O)=O)CCC3=O)c1 |  | > 10000 | 
17 | CS(=O)(=O)Nc1cc2c(cc1S(=O)(=O)c1ccc(F)cc1F)C(=O)CC2 |  | > 10000 | 
18 | Cc1ccccc1Sc1cc2c(cc1NS(C)(=O)=O)CCC2=O | > 50000 |  | 
19 | CS(=O)(=O)Nc1cc2c(cc1Sc1ccc(F)cc1)C(=O)CC2 | > 50000 | 1000 | 
20 | CS(=O)(=O)Nc1cc2c(cc1Sc1cccnc1)C(=O)CC2 |  |  | inhibition [4]: 30%

Row | Compound | IC50 [1] [nM] | IC50 [3] [nM] | also measured
21 | CS(=O)(=O)Nc1cc2c(cc1Sc1ccsc1)C(=O)CC2 |  |  | inhibition [4]: 46%
22 | CSc1ccc(Oc2cc3c(cc2NS(C)(=O)=O)CCC3=O)cc1 |  | 100 | 
23 | O=C1CCc2cc(NS(=O)(=O)C(F)(F)F)c(Sc3ccc(F)cc3F)cc21 |  | 40 | 
24 | CS(=O)(=O)Nc1cc2c(cc1Cc1ccc(F)cc1F)C(=O)CC2 | < 1000 | > 200 | 
25 | CS(=O)(=O)Nc1cc2c(cc1Sc1cccc(F)c1)C(=O)CC2 |  | > 10000 | 
26 | CC(C)(C)c1ccc(Sc2cc3c(cc2NS(C)(=O)=O)CCC3=O)cc1 |  | > 10000 | 
27 | CS(=O)(=O)Nc1cc2c(cc1Sc1ccccn1)C(=O)CC2 |  | 100 | 
28 | CS(=O)(=O)Nc1cc2c(cc1Nc1ccc(F)cc1F)C(=O)CC2 |  | 1000 | 
29 | CS(=O)(=O)Nc1cc2c(cc1Oc1ccc(S(C)(=O)=O)cc1)C(=O)CC2 |  | > 10000 | 
30 | CS(=O)(=O)Nc1cc2c(cc1Oc1ccc(F)cc1F)C(=O)CC2 [FLOSULIDE] | > 50000 |  | half-life [5]: 4.9 h; clearance [11]: 1.2 mL/min; bioavailability [6]: 92%; clearance [12]: 1.2 mL/min; ED30 (Rattus norvegicus [2]): 0.6 MPK; bioavailability [10]: 63%
31 | Cc1ccc(Sc2cc3c(cc2NS(C)(=O)=O)CCC3=O)cc1 | > 1000 |  | ED30 (Rattus norvegicus [2]): 10 MPK
32 | COc1ccc(Sc2cc3c(cc2NS(C)(=O)=O)CCC3=O)cc1 |  | 100 | 
33 | COc1ccc2c(c1)c(CC(=O)O)c(C)n2C(=O)c1ccc(Cl)cc1 [INDOMETHACIN] |  |  | ED50 (Rattus norvegicus [2]): 2 mg/kg; ED50 (Rattus norvegicus [13]): 1.47 mg/kg; ED50 (Rattus norvegicus [14]): 7 mg/kg
34 | CS(=O)(=O)Nc1cc2c(cc1OC1CCCCC1)C(=O)CC2 | > 1000 | 50 | ED30 (Rattus norvegicus [2]): 10 MPK
35 | CS(=O)(=O)Nc1cc2c(cc1Sc1cccs1)C(=O)CC2 |  | 1000 | 
36 | CS(=O)(=O)Nc1cc2c(cc1Sc1cscn1)C(=O)CC2 |  | > 10000 | 
37 | CS(=O)(=O)Nc1cc2c(cc1Sc1ccc(Br)cc1)C(=O)CC2 | > 10000 | 10 | ED30 (Rattus norvegicus [2]): 3 MPK
38 | CS(=O)(=O)Nc1cc2c(cc1Sc1c(F)cccc1F)C(=O)CC2 | > 50000 | 100 | 
39 | O=C1CCc2cc(NC(=O)C(F)(F)F)c(Sc3ccc(F)cc3F)cc21 |  | > 10000 | 
40 | CS(=O)(=O)Nc1cc2c(cc1OC1CCOCC1)C(=O)CC2 |  | > 10000 | 
